Assay results as given in ChEMBL document CHEMBL4257221, “Peptides comprising non-natural amino acids and methods of making and using the same” (2016).
Activity calls are given as the source filed them. No cut-off for these calls is given here. Numbered stars: 1 amine (or outer) side, 2 acyl side, 3 side chain; on linkers, the order of the positions; unused ones are H or OH. Square brackets hold non-standard residues; d marks the D form. Peptide text beside a SMILES is read from it. ξ: configuration not given here. X1 = O=C([C@H]1CCC[C@@H]1N[*:1])[*:2]; X2 = O=C([C@H]1CNC[C@@H]1N[*:1])[*:2]; ξβ3hY = NC(CC(=O)O)Cc1ccc(O)cc1; ξβ3hQ = NC(=O)CCC(N)CC(=O)O; ξβ3hN = NC(=O)CC(N)CC(=O)O; ξβ3hL = CC(C)CC(N)CC(=O)O; ξβ3hK = NCCCCC(N)CC(=O)O; ξβ3hT = CC(O)C(N)CC(=O)O; ξβ3hV = CC(C)C(N)CC(=O)O; ξβ3hS = NC(CO)CC(=O)O; βAla = NCCC(=O)O

Key:
Mus musculus [1] = test: Anti-parkinson's activity in MPTP-induced C57BL/6 mouse model of Parkinson's disease receiving adaptive transfer of splenocytes from 15 ug/day/5 days, ip compound treated donor mouse assessed as TH-positive neurons survival rate in substantia nigra measured on day 7 post MPTP intoxication by FJ-C staining based assay (reference value: 24.5%); format: functional
Mus musculus [2] = test: Stimulation of Treg cells function in C57BL/6 mouse splenocytes assessed as suppression of anti-CD3-stimulated effector T cell proliferation pretreated ip daily for 5 days followed by splenocytes isolation and co-culture with untreated splenocytes at 1:1 ratio; format: functional, organism-based
Mus musculus [3] = test: Stimulation of Treg cells function in C57BL/6 mouse splenocytes assessed as suppression of anti-CD3-stimulated CD4+/CD25- naive T cells proliferation at 300 ug, ip pretreated daily for 5 days followed by splenocytes isolation and co-culture with CD4+/CD25- naive T cells; format: functional, organism-based
[4] = biological target: T1, Vasoactive intestinal polypeptide receptor 1 (Homo sapiens, UniProt P32241); test: Agonist activity at human VIPR1 expressed in CHOK1 cells assessed as intracellular cAMP accumulation after 60 mins by PathHunter assay; format: functional, cell-based
T1 sequence (P32241 whole entry): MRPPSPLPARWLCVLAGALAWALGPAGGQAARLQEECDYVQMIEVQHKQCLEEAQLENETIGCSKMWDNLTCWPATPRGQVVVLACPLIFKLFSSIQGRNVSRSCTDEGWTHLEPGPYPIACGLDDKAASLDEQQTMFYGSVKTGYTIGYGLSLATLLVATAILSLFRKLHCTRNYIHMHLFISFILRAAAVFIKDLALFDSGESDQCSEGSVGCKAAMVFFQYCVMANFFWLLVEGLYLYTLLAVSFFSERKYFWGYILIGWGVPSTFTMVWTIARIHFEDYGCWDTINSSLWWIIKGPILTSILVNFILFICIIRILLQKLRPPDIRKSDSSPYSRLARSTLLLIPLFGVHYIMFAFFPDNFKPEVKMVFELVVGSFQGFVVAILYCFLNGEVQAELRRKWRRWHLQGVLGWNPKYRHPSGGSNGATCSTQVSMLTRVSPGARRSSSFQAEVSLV

[5] = biological target: T2, Vasoactive intestinal polypeptide receptor 2 (Homo sapiens, UniProt P41587); test: Agonist activity at human VIPR2 expressed in CHOK1 cells assessed as intracellular cAMP accumulation after 60 mins by PathHunter assay; format: functional, cell-based
T2 sequence (P41587 whole entry): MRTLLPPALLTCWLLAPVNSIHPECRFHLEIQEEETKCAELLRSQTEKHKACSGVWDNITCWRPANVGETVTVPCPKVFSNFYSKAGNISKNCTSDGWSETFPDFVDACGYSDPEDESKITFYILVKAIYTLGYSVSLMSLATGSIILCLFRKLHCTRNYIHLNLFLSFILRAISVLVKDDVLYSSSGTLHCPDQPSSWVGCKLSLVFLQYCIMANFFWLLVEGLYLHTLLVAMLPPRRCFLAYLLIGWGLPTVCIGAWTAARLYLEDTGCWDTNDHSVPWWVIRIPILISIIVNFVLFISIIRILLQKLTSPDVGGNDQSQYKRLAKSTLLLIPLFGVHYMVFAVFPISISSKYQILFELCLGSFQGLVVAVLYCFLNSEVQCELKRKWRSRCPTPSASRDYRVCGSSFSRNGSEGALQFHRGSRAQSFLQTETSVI

## CC(=O)N[C@@H](Cc1cnc[nH]1)C(=O)N[C@H]1CCC[C@@H]1C(=O)N[C@@H](CC(=O)O)C(=O)N[C@@H](C)C(=O)N[C@H]1CCC[C@@H]1C(=O)N[C@@H](Cc1ccccc1)C(=O)N[C@H](C(=O)N[C@@H](CCC(=O)O)C(=O)N[C@@H](CC(N)=O)C(=O)N[C@@H](Cc1ccc(O)cc1)C(=O)N[C@H](C(=O)N[C@@H](CCCCN)C(=O)N[C@@H](CC(C)C)C(=O)N[C@@H](CCCNC(=N)N)C(=O)N[C@@H](CCCCN)C(=O)NC(CCC(N)=O)CC(=O)N[C@@H](CC(C)C)C(=O)N[C@@H](C)C(=O)N[C@@H](C)C(=O)N[C@H]1CNC[C@@H]1C(=O)N[C@@H](CCCCN)C(=O)N[C@@H](Cc1ccc(O)cc1)C(=O)N[C@H]1CCC[C@@H]1C(=O)N[C@@H](CC(N)=O)C(=O)N[C@@H](CC(=O)O)C(=O)N[C@@H](CC(C)C)C(=O)NC(CCCCN)CC(=O)N[C@@H](CCCCN)C(=O)NCC(=O)NCCC(=O)NC(CC(=O)O)C(C)O)[C@@H](C)O)[C@@H](C)O (stereo partly drawn) (Ac-H[X1]DA[X1]FTENYTKLRK[ξβ3hQ]LAA[X2]KY[X1]NDL[ξβ3hK]KG[βAla][ξβ3hT]-OH)
Mus musculus [1]
  Survival: 79.7%
Mus musculus [2]
  Activity: Dose-dependent effect
Mus musculus [3]
  Activity: Active

## CC[C@H](C)[C@H](NC(=O)[C@H](C)NC(=O)[C@H](CC(N)=O)NC(=O)CC(CC(C)C)NC(=O)[C@H](Cc1ccc(O)cc1)NC(=O)[C@H](CCCCN)NC(=O)[C@H](CCCCN)NC(=O)CC(NC(=O)[C@H](C)NC(=O)[C@H](CC(C)C)NC(=O)[C@H](CCC(N)=O)NC(=O)CC(CCCCN)NC(=O)[C@H](CCCNC(=N)N)NC(=O)[C@H](CC(C)C)NC(=O)[C@H](CCCNC(=N)N)NC(=O)CC(NC(=O)[C@H](Cc1ccc(O)cc1)NC(=O)[C@H](CC(N)=O)NC(=O)[C@H](CC(=O)O)NC(=O)[C@@H](NC(=O)[C@H](Cc1ccccc1)NC(=O)[C@@H](NC(=O)[C@H](C)NC(=O)[C@H](CC(=O)O)NC(=O)[C@H]1CCC[C@@H]1NC(=O)[C@@H](N)Cc1cnc[nH]1)C(C)C)[C@@H](C)O)C(C)O)C(C)C)C(=O)NC(CC(=O)N[C@@H](CC(N)=O)C(=O)O)CC(C)C (stereo partly drawn) (H-H[X1]DAVFTDNY[ξβ3hT]RLR[ξβ3hK]QLA[ξβ3hV]KKY[ξβ3hL]NAI[ξβ3hL]N-OH)
[4]
  EC50: 5.66 nM
[5]
  EC50: 4900 nM

## CC[C@H](C)[C@H](NC(=O)[C@H](C)NC(=O)[C@H](CC(N)=O)NC(=O)CC(CC(C)C)NC(=O)[C@H](Cc1ccc(O)cc1)NC(=O)[C@H](CCCCN)NC(=O)[C@H](CCCCN)NC(=O)CC(NC(=O)[C@H](C)NC(=O)[C@H](CC(C)C)NC(=O)[C@H](CCC(N)=O)NC(=O)CC(CCCCN)NC(=O)[C@H](CCCNC(=N)N)NC(=O)[C@H](CC(C)C)NC(=O)[C@H](CCCNC(=N)N)NC(=O)CC(NC(=O)[C@H](Cc1ccc(O)cc1)NC(=O)[C@H](CC(N)=O)NC(=O)[C@H](CC(=O)O)NC(=O)[C@@H](NC(=O)[C@H](Cc1ccccc1)NC(=O)[C@H]1CCC[C@@H]1NC(=O)[C@H](C)NC(=O)[C@H](CC(=O)O)NC(=O)[C@H]1CCC[C@@H]1NC(=O)[C@@H](N)Cc1cnc[nH]1)[C@@H](C)O)C(C)O)C(C)C)C(=O)NC(CC(=O)N[C@@H](CC(N)=O)C(=O)O)CC(C)C (stereo partly drawn) (H-H[X1]DA[X1]FTDNY[ξβ3hT]RLR[ξβ3hK]QLA[ξβ3hV]KKY[ξβ3hL]NAI[ξβ3hL]N-OH)
[4]
  EC50: 0.358 nM
[5]
  EC50: 79.6 nM

## CC(C)C[C@H](NC(=O)[C@H](CC(=O)O)NC(=O)[C@H](CC(N)=O)NC(=O)[C@H]1CCC[C@@H]1NC(=O)[C@H](Cc1ccc(O)cc1)NC(=O)[C@H](CCCCN)NC(=O)[C@H]1CNC[C@@H]1NC(=O)[C@H](C)NC(=O)[C@H](C)NC(=O)[C@H](CC(C)C)NC(=O)[C@H](CCC(N)=O)NC(=O)[C@H](CCCCN)NC(=O)[C@H](CCCNC(=N)N)NC(=O)[C@H](CC(C)C)NC(=O)[C@H](CCCCN)NC(=O)[C@@H](NC(=O)CC(Cc1ccc(O)cc1)NC(=O)CC(CC(N)=O)NC(=O)[C@H](CCC(=O)O)NC(=O)[C@@H](NC(=O)[C@H](Cc1ccccc1)NC(=O)[C@H]1CCC[C@@H]1NC(=O)[C@H](C)NC(=O)[C@H](CC(=O)O)NC(=O)[C@H]1CCC[C@@H]1NC(=O)[C@@H](N)Cc1cnc[nH]1)[C@@H](C)O)[C@@H](C)O)C(=O)NC(CCCCN)CC(=O)N[C@@H](CCCCN)C(=O)NCC(=O)NCCC(=O)N[C@H](C(=O)O)[C@@H](C)O (stereo partly drawn) (H-H[X1]DA[X1]FTE[ξβ3hN][ξβ3hY]TKLRKQLAA[X2]KY[X1]NDL[ξβ3hK]KG[βAla]T-OH)
[4]
  EC50: 932 nM
[5]
  EC50: 95.6 nM

## CC[C@H](C)[C@H](NC(=O)[C@H](C)NC(=O)[C@H](CC(N)=O)NC(=O)CC(CC(C)C)NC(=O)[C@H](Cc1ccc(O)cc1)NC(=O)[C@H](CCCCN)NC(=O)[C@H](CCCCN)NC(=O)CC(NC(=O)[C@H](C)NC(=O)[C@H](CC(C)C)NC(=O)[C@H](CCC(N)=O)NC(=O)CC(CCCCN)NC(=O)[C@H](CCCNC(=N)N)NC(=O)[C@H](CC(C)C)NC(=O)[C@H](CCCNC(=N)N)NC(=O)CC(NC(=O)[C@H](Cc1ccc(O)cc1)NC(=O)[C@H](CC(N)=O)NC(=O)[C@H](CC(=O)O)NC(=O)[C@@H](NC(=O)[C@H](Cc1ccccc1)NC(=O)CC(NC(=O)[C@H](C)NC(=O)[C@H](CC(=O)O)NC(=O)[C@H]1CCC[C@@H]1NC(=O)[C@@H](N)Cc1cnc[nH]1)C(C)C)[C@@H](C)O)C(C)O)C(C)C)C(=O)NC(CC(=O)N[C@@H](CC(N)=O)C(=O)O)CC(C)C (stereo partly drawn) (H-H[X1]DA[ξβ3hV]FTDNY[ξβ3hT]RLR[ξβ3hK]QLA[ξβ3hV]KKY[ξβ3hL]NAI[ξβ3hL]N-OH)
[4]
  EC50: 4.43 nM
[5]
  EC50: 262 nM

## CC[C@H](C)[C@H](NC(=O)[C@H](C)NC(=O)[C@H](CC(N)=O)NC(=O)CC(CC(C)C)NC(=O)[C@H](Cc1ccc(O)cc1)NC(=O)[C@H](CCCCN)NC(=O)[C@H](CCCCN)NC(=O)CC(NC(=O)[C@H](C)NC(=O)[C@H](CC(C)C)NC(=O)[C@H](CCC(N)=O)NC(=O)CC(CCCCN)NC(=O)[C@H](CCCNC(=N)N)NC(=O)[C@H](CC(C)C)NC(=O)[C@H](CCCNC(=N)N)NC(=O)CC(NC(=O)[C@H](Cc1ccc(O)cc1)NC(=O)[C@H](CC(N)=O)NC(=O)[C@H](CC(=O)O)NC(=O)[C@@H](NC(=O)[C@H](Cc1ccccc1)NC(=O)CC(NC(=O)[C@H](C)NC(=O)[C@H](CC(=O)O)NC(=O)CC(CO)NC(=O)[C@@H](N)Cc1cnc[nH]1)C(C)C)[C@@H](C)O)C(C)O)C(C)C)C(=O)NC(CC(=O)N[C@@H](CC(N)=O)C(=O)O)CC(C)C (stereo partly drawn) (H-H[ξβ3hS]DA[ξβ3hV]FTDNY[ξβ3hT]RLR[ξβ3hK]QLA[ξβ3hV]KKY[ξβ3hL]NAI[ξβ3hL]N-OH)
[4]
  EC50: 64.4 nM
[5]
  EC50: 716 nM

## CC[C@H](C)[C@H](NC(=O)[C@H](C)NC(=O)[C@H](CC(N)=O)NC(=O)CC(CC(C)C)NC(=O)[C@H](Cc1ccc(O)cc1)NC(=O)[C@H](CCCCN)NC(=O)[C@H](CCCCN)NC(=O)CC(NC(=O)[C@H](C)NC(=O)[C@H](CC(C)C)NC(=O)[C@H](CCC(N)=O)NC(=O)CC(CCCCN)NC(=O)[C@H](CCCNC(=N)N)NC(=O)[C@H](CC(C)C)NC(=O)[C@H](CCCNC(=N)N)NC(=O)CC(NC(=O)[C@H](Cc1ccc(O)cc1)NC(=O)CC(CC(N)=O)NC(=O)[C@H](CC(=O)O)NC(=O)[C@@H](NC(=O)[C@H](Cc1ccccc1)NC(=O)CC(NC(=O)[C@H](C)NC(=O)[C@H](CC(=O)O)NC(=O)CC(CO)NC(=O)[C@@H](N)Cc1cnc[nH]1)C(C)C)[C@@H](C)O)C(C)O)C(C)C)C(=O)NC(CC(=O)N[C@@H](CC(N)=O)C(=O)O)CC(C)C (stereo partly drawn) (H-H[ξβ3hS]DA[ξβ3hV]FTD[ξβ3hN]Y[ξβ3hT]RLR[ξβ3hK]QLA[ξβ3hV]KKY[ξβ3hL]NAI[ξβ3hL]N-OH)
[4]
  EC50: 298000 nM
[5]
  EC50: 503 nM
